The test system of experiment [1] is H9c2. In words: cells. The experiment is classed as functional, cell-based. Particulars: Rattus norvegicus, H9c2, Myocardium.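 Also: confirmatory concentration-response retest of ultra-high-throughput screening hits for modulation of myocardial damage; cell death induced by hydrogen peroxide oxidative stress; compound pretreatment for 60 min then peroxide exposure for 2 h; potency is for protecting the cells against peroxide damage rather than for killing them.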
In experiment [2] the target is T1, Calpain-2 catalytic subunit (Sus scrofa, UniProt P43367).
T1 sequence (P43367 whole entry): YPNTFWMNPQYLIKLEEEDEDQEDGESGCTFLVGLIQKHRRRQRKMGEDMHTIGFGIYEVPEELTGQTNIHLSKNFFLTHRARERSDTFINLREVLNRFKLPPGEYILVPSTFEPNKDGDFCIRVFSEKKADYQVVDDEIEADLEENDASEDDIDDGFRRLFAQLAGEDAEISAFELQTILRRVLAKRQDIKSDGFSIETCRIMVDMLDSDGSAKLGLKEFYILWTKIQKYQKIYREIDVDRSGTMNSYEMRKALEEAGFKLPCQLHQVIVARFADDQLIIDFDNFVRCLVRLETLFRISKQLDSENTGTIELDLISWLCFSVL
In words: pig calpain II inhibitor potency, dose response, biochemical, fluorogenic peptide substrate (AID 1420). It is filed as functional.

Experiment [3] deals with T2, Replicative DNA helicase DnaB (Mycobacterium tuberculosis, UniProt P9WMR3).
T2 sequence (P9WMR3 whole entry): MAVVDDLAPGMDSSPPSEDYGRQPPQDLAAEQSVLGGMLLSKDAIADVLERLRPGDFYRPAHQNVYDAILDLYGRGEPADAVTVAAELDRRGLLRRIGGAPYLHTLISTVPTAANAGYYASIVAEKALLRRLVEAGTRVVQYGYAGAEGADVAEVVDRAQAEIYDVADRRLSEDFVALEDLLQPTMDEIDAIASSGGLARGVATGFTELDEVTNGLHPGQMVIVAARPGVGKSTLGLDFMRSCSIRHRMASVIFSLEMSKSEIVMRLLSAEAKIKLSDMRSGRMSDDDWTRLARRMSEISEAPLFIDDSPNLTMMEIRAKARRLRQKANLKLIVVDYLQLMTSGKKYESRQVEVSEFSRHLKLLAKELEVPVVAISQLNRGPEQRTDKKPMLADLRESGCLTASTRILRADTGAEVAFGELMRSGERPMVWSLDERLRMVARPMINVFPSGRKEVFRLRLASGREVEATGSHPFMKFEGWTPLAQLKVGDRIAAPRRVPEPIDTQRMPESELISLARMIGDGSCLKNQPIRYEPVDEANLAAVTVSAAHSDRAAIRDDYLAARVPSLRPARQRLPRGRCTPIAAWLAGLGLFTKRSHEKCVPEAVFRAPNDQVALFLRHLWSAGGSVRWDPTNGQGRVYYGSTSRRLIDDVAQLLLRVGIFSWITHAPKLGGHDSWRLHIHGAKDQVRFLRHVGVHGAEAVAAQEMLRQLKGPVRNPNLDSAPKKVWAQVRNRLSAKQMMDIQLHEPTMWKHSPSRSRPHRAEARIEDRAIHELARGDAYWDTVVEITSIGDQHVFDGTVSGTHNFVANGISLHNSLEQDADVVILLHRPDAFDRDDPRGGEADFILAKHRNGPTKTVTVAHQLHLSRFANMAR
In words: DnaB intein splicing inhibitors, dose response, biochemical, cell-free fluorescence (AID 449749). It is filed as functional.

Experiment [4] deals with T3, Protein RecA (Mycobacterium tuberculosis, UniProt P9WHJ3).
T3 sequence (P9WHJ3 whole entry): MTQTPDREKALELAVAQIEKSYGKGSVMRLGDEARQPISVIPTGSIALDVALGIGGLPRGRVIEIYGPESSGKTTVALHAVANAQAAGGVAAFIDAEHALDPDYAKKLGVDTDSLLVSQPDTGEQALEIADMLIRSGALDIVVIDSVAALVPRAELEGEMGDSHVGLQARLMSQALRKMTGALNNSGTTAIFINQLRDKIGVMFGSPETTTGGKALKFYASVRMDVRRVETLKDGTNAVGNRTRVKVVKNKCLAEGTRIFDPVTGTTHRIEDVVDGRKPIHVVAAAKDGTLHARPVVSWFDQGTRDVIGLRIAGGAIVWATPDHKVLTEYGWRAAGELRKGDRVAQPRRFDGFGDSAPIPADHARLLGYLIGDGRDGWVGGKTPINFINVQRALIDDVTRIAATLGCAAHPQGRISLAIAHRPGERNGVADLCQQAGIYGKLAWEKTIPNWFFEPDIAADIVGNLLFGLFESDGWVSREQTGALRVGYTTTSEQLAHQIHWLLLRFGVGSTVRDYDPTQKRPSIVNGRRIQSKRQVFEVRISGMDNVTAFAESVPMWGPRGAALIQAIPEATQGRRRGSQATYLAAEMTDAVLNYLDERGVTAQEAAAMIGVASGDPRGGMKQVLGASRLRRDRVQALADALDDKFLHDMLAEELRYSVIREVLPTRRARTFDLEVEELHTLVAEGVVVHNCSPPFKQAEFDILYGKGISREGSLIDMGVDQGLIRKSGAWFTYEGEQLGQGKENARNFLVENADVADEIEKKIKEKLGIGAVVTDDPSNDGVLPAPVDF
In words: Fluorescence Cell-Free Homogeneous Dose Retest to Identify Inhibitors of RecA-Intein Splicing Activity. [Related pubchem assays (depositor defined):AID2097, AID2223, AID489010, AID492950]. The experiment is classed as functional.

The subject of experiment [5] is Streptococcus sp. 'group A'. In words: growth inhibition of control SK(-) GAS strain, dose response, counter-screen for streptokinase expression inhibitor project, luminescence, kanamycin, BacTiterGlo, confirmation (AID 1900). The experiment is classed as functional, organism-based.
Experiment [6] concerns the target T4, Streptokinase A (Streptococcus pyogenes serotype M1, UniProt P10520).
T4 sequence (P10520 whole entry): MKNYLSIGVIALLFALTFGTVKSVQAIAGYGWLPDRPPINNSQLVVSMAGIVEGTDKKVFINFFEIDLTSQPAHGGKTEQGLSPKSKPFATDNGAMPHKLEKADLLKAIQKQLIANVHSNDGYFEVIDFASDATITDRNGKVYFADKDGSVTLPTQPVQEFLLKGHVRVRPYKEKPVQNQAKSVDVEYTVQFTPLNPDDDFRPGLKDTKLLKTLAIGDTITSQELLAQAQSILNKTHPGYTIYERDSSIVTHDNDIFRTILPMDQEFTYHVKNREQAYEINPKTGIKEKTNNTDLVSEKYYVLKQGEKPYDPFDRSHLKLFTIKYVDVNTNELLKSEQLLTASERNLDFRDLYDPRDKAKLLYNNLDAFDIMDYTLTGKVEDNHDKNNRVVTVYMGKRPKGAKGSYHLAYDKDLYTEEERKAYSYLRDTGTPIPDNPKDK
In words: S. pyogenes streptokinase expression inhibitors, potency, dose response, plasminogen activation absorbance, OD405 (AID 1914).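 Also: secreted streptokinase activity via plasminogen activation per viability signal from cell pellet.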 It is filed as functional, Streptococcus pyogenes M1 GAS.

The test system of experiment [7] is Streptococcus. In words: Group A Streptococcus viability loss, dose response, counter-screen for streptokinase expression inhibitor project, luminescence, BacTiterGlo (AID 1915).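 Also: potency for reduction of bacterial viability or growth.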 It is filed as functional, organism-based.
Experiment [8] is described as follows: microbe, parasite or virus in culture. The experiment is classed as functional. As to conditions: Mycobacterium tuberculosis.
For experiment [9], the system named is H4. In words: Luminescence Cell-Based Dose Response HTS to Identify Activators of 5'UTR Stem-Loop Driven Prion Protein mRNA Translation in H4 Neuroglioblastoma Cells. [Related pubchem assays: 1829 (Project Summary), 1814 (Primary HTS)]. The experiment is classed as functional. As to conditions: Homo sapiens.

Activity calls are given as the source filed them. Rule as the data show it, for most assays here: actives have a measured EC50 and inactives only a lower limit.

For `O=[N+]([O-])c1cc(-c2nnc(O)c3ccccc23)ccc1NCCO`, the IC50 in experiment [1] was 16.6 µM (active).

For `CC(C)c1ccc(C(=O)NC(=S)NCc2cccnc2)cc1`, the IC50 in experiment [2] is given as 27 µM (not active).

Take `CCOc1ccc(NC(=NCc2ccc3c(c2)OCO3)SC2CC(=O)N(c3ccccc3)C2=O)cc1` (stereo not given): the IC50 in [2] is on record as > 50 µM (not active).

As for `CC(CCc1ccccc1)NC(=O)/C=C/c1ccc(F)cc1` (stereo not given), the IC50 in [2] is 27.6 µM (not active).

Take `COc1ccc(-c2cc(CNC(=O)CCl)on2)cc1`: the AC50 in experiment [3] was 262 µM (active). Moreover, the EC50 in [4] was 17.7 µM (active).

Take `O=C(NC(=S)N1CCN(c2ccc(F)cc2)CC1)C12CC3CC(CC(C3)C1)C2`: the EC50 is 29.7 µM (active) in experiment [5], > 150 µM (not active) in experiment [6] and > 150 µM (not active) in [7].

As to `O=C1CC/[N+](=C\c2ccc(Cl)cc2)[N-]1`, the AC50 in [3] is 150 µM (active). The EC50 in experiment [4] was 3.64 µM (active).

As for `COc1ccc(C2c3ccc(O)cc3Oc3ncn4nc(-c5ccncc5)nc4c32)cc1OC` (stereo not given), the EC50 in experiment [5] is 4.67 µM (active); in [6], > 150 µM (not active); in experiment [7] it was 27.9 µM (active).

Take `CC(NS(=O)(=O)/C=C/c1ccccc1)C(=O)O` (stereo not given): the EC50 in experiment [5], in experiment [6] and in [7] was > 150 µM (not active) each time.

On to `CCOC(=O)C1=NN(C(=O)c2ccco2)C2(CC2)C1`, for which, in [1], the IC50 was > 79 µM (inactive).

Regarding `CCc1ccc2nc(N3C(=O)C(O)=C(C(=O)c4ccco4)C3c3cccs3)sc2c1` (stereo not given), the EC50 in experiment [5] is 2.2 µM (active); in experiment [6], > 150 µM (not active); in experiment [7] it was 7.12 µM (active). For the same compound, the CC50 in experiment [8] is > 40 µM (active).

Consider `O=C(OCc1nnn(Cc2ccccc2)c1-c1c(COC(=O)c2ccccc2)nnn1Cc1ccccc1)c1ccccc1`, for which the IC50 in experiment [2] was 2.52 µM (not active).

Consider `CCOc1cc(C(c2c(C)n[nH]c2O)c2c(C)n[nH]c2O)ccc1OCc1ccc([N+](=O)[O-])cc1`, for which the AC50 in experiment [3] is 0.281 µM (active). Besides, the EC50 in [4] was 0.159 µM (active).

For the compound `Cc1ccc(CN=C(S)Nc2ccc(NS(=O)(=O)c3ccc(C)cc3)cc2)cc1`, the values for the EC50 in [5], in experiment [6] and in [7] were 9.78 µM (active), > 150 µM (not active) and 17.6 µM (active), respectively.

On to `CN1CCN(CCc2nc3cc(NC(=O)c4ccco4)ccc3n2C)CC1`, for which the IC50 in experiment [2] is > 50 µM (not active).

Turning to `Cc1sc2nc(CSCC(=O)N(CCC#N)c3ccccc3F)nc(O)c2c1C`, the IC50 in experiment [1] was > 79 µM (inactive).

As to `Cc1ccc(Oc2ccc3c(c2)C(=O)N(c2ccc(S(=O)(=O)Nc4nccs4)cc2)C3=O)cc1`, the EC50 in experiment [5] was 9.43 µM (active); in [6], > 150 µM (not active); in experiment [7], 20 µM (active).

Regarding `COc1ccc(/C=C2/C(=O)N(Cc3ccccc3)N=C2C)cc1`, the AC50 in [3] was 4.12 µM (active). In addition, in experiment [4], the EC50 was 1.91 µM (active).

Regarding `CCCCn1c(=O)c(C(=O)NCc2ccccc2Cl)c(O)c2ccccc21`, the EC50 is 54.8 µM (active) in experiment [5], 5.97 µM (inconclusive) in [6] and > 150 µM (not active) in experiment [7].

In the case of `O=C1CC(c2cccnc2)=NN1c1ccccc1`, in experiment [3], the AC50 is 3.7 µM (active). For the same compound, the EC50 in experiment [4] was 13.9 µM (active).

As to `COCc1c(C(=O)Nc2ccc3nc(N4CCOCC4)sc3c2)oc2ccccc12`, in experiment [1], the IC50 is > 79 µM (inactive).

`CCc1ccc(NC(=O)c2ccccc2NC(=O)C2CCCO2)cc1` (stereo not given): the EC50 in experiment [9] is 2.64 µM (active).

In the case of `Cn1c(N)c(C(=O)COC(=O)C23CC4CC(CC(C4)C2)C3)c(=O)n(C)c1=O`, the IC50 in experiment [2] was 2.26 µM (active).

As to `COCc1nc2ccccc2n1Cc1ccc(Br)cc1`, the IC50 in experiment [2] is listed as 8.1 µM (not active).

Consider `CCC(C)(C)NC(=O)c1ccc(S(=O)(=O)N2CCCCCC2)cc1`, for which the IC50 in experiment [2] is 22.9 µM (not active).

Regarding `COc1ccccc1/N=C1\C(Cl)=C(O)OC1OC(=O)c1ccco1` (stereo not given), in experiment [3], the AC50 is 12.5 µM (active). In addition, the EC50 in [4] was 13.4 µM (active).

Consider `COc1cc(-c2cc3nc(NCCOc4ccccc4)ccn3n2)cc(OC)c1OC`, for which, in experiment [1], the IC50 was > 79 µM (inactive).

Take `CS(=O)(=O)Nc1ccc(C(=O)Nc2ccccc2C(=O)NCc2ccco2)cc1`: the EC50 in experiment [5], in experiment [6] and in experiment [7] was > 150 µM (not active) each time.

For the compound `Cc1ccc(NC(=O)NN(C)c2c(Cl)c(Cl)nn2C)cc1`, the IC50 in [2] is listed as > 50 µM (not active).

On to `COC(=O)c1ccc(/C=N/NS(=O)(=O)c2cc(C)ccc2C)cc1`, for which, in experiment [2], the IC50 was 6.58 µM (not active).

On to `CN(c1ccccc1)c1ccc([N+](=O)[O-])c2nonc12`, for which the concentration at half-maximal activity (AC50) in experiment [3] is 74.7 µM (active). In addition, the EC50 in experiment [4] was 5.22 µM (active).

Values taken from ChEMBL document CHEMBL1201862, “PubChem BioAssay data set” (2004).
